Measured values: ChEMBL document CHEMBL1130964, “Naphthoquinone analogs as inactivators of cdc25 phosphatase” (1998)

Columns and labels:
Type in all cases: functional
SK-HEP1 [1] = test: The compound was evaluated for the percent cell cycle fraction when human hepatoma SK hep-1 cells were treated with the compound for 12 hours at a concentration of 4 uM in the G2/M phase of cell cycle
Homo sapiens [2] = organism: Homo sapiens; test: The compound was evaluated for the percent cell cycle fraction when human hepatoma SK hep-1 cells were treated with the compound for 24 hours at a concentration of 4 uM in the G1 phase of cell cycle
Homo sapiens [3] = organism: Homo sapiens; test: The compound was evaluated for the percent cell cycle fraction when human hepatoma SK hep-1 cells were treated with the compound for 6 hours at a concentration of 4 uM in the G1 phase of cell cycle
Homo sapiens [4] = organism: Homo sapiens; test: The compound was evaluated for the percent cell cycle fraction when human hepatoma SK hep-1 cells were treated with the compound for 6 hours at a concentration of 4 uM in the G2/M phase of cell cycle
Homo sapiens [5] = organism: Homo sapiens; test: The compound was evaluated for the percent cell cycle fraction when human hepatoma SK hep-1 cells were treated with the compound for 0 hr at a concentration of 4 uM in the S phase of cell cycle
SK-HEP1 [6] = test: The compound was evaluated for the percent cell cycle fraction when human hepatoma SK hep-1 cells were treated with the compound for 0 hr at a concentration of 4 uM in the G2/M phase of cell cycle
SK-HEP1 [7] = test: The compound was evaluated for the percent cell cycle fraction when human hepatoma SK hep-1 cells were treated with the compound for 24 hours at a concentration of 4 uM in the G2/M phase of cell cycle
SK-HEP1 [8] = test: The compound was evaluated for the percent cell cycle fraction when human hepatoma SK hep-1 cells were treated with the compound for 12 hours at a concentration of 4 uM in the G1 phase of cell cycle
SK-HEP1 [9] = test: The compound was evaluated for the percent cell cycle fraction when human hepatoma SK hep-1 cells were treated with the compound for 6 hours at a concentration of 4 uM in the S phase of cell cycle
SK-HEP1 [10] = test: The compound was evaluated for the percent cell cycle fraction when human hepatoma SK hep-1 cells were treated with the compound for 24 hours at a concentration of 4 uM in the S phase of cell cycle
SK-HEP1 [11] = test: The compound was evaluated for the percent cell cycle fraction when human hepatoma SK hep-1 cells were treated with the compound for 0 hr at a concentration of 4 uM in the G1 phase of cell cycle
Homo sapiens [12] = organism: Homo sapiens; test: The compound was evaluated for the percent cell cycle fraction when human hepatoma SK hep-1 cells were treated with the compound for 12 hours at a concentration of 4 uM in the S phase of cell cycle

## O=C1C=CC(=O)c2c(O)c(Cl)c(Cl)c(O)c21
SK-HEP1 [1]
  Cell cycle fraction: 16%
Homo sapiens [2]
  Cell cycle fraction: 71%
Homo sapiens [3]
  Cell cycle fraction: 54%
Homo sapiens [4]
  Cell cycle fraction: 26%
Homo sapiens [5]
  Cell cycle fraction: 21%
SK-HEP1 [6]
  Cell cycle fraction: 31%
SK-HEP1 [7]
  Cell cycle fraction: 16%
SK-HEP1 [8]
  Cell cycle fraction: 70%
SK-HEP1 [9]
  Cell cycle fraction: 20%
SK-HEP1 [10]
  Cell cycle fraction: 13%
SK-HEP1 [11]
  Cell cycle fraction: 48%
Homo sapiens [12]
  Cell cycle fraction: 14%
